Reference: publication PMC11237012, “Synthesis and preliminary evaluation of novel PET probes for GSK-3 imaging” (Scientific Reports, 2024)

Legend:
[1] = Radiochemical stability in isotonic NaCl solution (rad-TLC); format: physicochemical; settings: 37 °C
Protocol: (§1) The stability of PET probes [^18F]2 and [^18F]6 was measured in isotonic NaCl solution (0.9% NaCl) and mouse and human serums at 37 °C for up to 120 min by rad-TLC at 0 min, 30 min, 60 min and 120 min post incubation. The results obtained are presented in Fig. 5 and SI-Figs. S10–S15, SI-Table S1. […] The plausible explanation of the instability of [^18F]6 could be attributed to the covalent interaction of [^18F]6’s SO2F group with primary amines of amino acid residues present in the protein rich mouse and human serums. In fact, in an unrelated study, Zhao et al. reported formation of sulfonamide bond between sulfuryl fluoride and primary amine of conserved lysine residues of different kinases. […] Based on 2’s favorable blood–brain barrier permeability, nanomolar binding affinity and PET probe [^18F]2’s excellent stability in both mouse and human serums, further in vivo evaluations were performed only with PET probe [^18F]2.
(§2) Stability of [^18F]2 and [^18F]6 was assessed in isotonic NaCl solution and human and mouse serums. To perform this stability assay, 100 µL of [^18F]2 (~ 37.0 MBq) or 100 µL of [^18F]6 (~ 37.0 MBq) as in final formulation was added to 100 µL of human serum or mouse serum in a microcentrifuge tube. The resultant mixture was incubated at 37 °C for 120 min. To assess the radiochemical stability of the probes, a small aliquot (~ 0.5 µL) was taken out from the mixture in triplicate at 0 min, 30 min, 60 min and 120 min during incubation, and analyzed on a rad-TLC using 0.5:9.5 methanol: chloroform as a mobile phase using i-TLC to estimate the stability of [^18F]2 or [^18F]6 at different time points post-incubation. After Stability preparative processes initial i-TLC development was considered as 0 min.

[2] = Radiochemical stability in human serum (rad-TLC); format: in vitro ADME; settings: 37 °C
Protocol: as §1, §2

Measured: Percentage of intact probe

O=C(Nc1cnccc1-c1ccc([18F])cc1)c1ccnc(NC(=O)C2CC2)c1 [[^18F]2]
100 ± 0.0%: [1]; 0 min | [1]; 30 min | [1]; 60 min | [2]; 0 min | [2]; 30 min | [2]; 60 min
